From PMC12441791, “Structural modifications of toxyloxanthone C and macluraxanthone isolated from Maclura cochinchinensis: cytotoxicity, antibacterial activity, and in silico studies” (RSC Advances, 2025)
Values after ≈ are worked out from the molar mass of the structure shown. Read-outs that look alike come from different tables or passages of the source.

Legend:
[1] = system: Vero (African green monkey kidney) cells; parameters: method as in PMID 35422182; settings: parent xanthones, previous report, read-out: Cytotoxicity (IC50, μM) Vero; cited from earlier work
[2] = system: Bacillus subtilis ATCC 6633; parameters: method as in PMID 35422182; settings: parent xanthones, previous report; cited from earlier work
[3] = system: A549 (human lung carcinoma) cells; parameters: method as in PMID 35422182; settings: parent xanthones, previous report, read-out: Cytotoxicity (IC50, μM) A549; cited from earlier work
[4] = system: Bacillus cereus ATCC 11778; parameters: method as in PMID 35422182; settings: parent xanthones, previous report; cited from earlier work
[5] = system: HepG2 (human hepatocellular carcinoma) cells; parameters: method as in PMID 35422182; settings: parent xanthones, previous report, read-out: Cytotoxicity (IC50, μM) HepG2; cited from earlier work
[6] = system: S. aureus ATCC 25923; parameters: method as in PMID 35422182; settings: parent xanthones, previous report; cited from earlier work
[7] = system: HelaS3 (human cervical carcinoma) cells; parameters: method as in PMID 35422182; settings: parent xanthones, previous report, read-out: Cytotoxicity (IC50, μM) HelaS3; cited from earlier work
[8] = system: Methicillin resistant Staphylococcus aureus (MRSA); parameters: method as in PMID 35422182; settings: parent xanthones, previous report; cited from earlier work
[9] = system: HepG2 (human hepatocellular carcinoma) cells; experiment: In vitro cytotoxicity, HepG2; type: cell-based
Procedure: (§1) All types of cancer and non-tumorigenic cells were purchased from ATCC. Cytotoxicity assays against human cervical carcinoma (HelaS3; ATCC CCL2-2), human hepatocellular carcinoma (HepG2; ATCC HB-8065), human lung carcinoma (A549; ATCC CCL-185), and African green monkey kidney (Vero; ATCC CCL-81) cell lines were performed by […].[44] Cells proliferation was performed using the MTT colorimetric assay,[44] as in our previous publication.[4]

[10] = system: Bacillus cereus ATCC 11778; experiment: Antibacterial microdilution MIC, B. cereus; type: cell-based
Procedure: (§2) Four bacterial cultures Bacillus cereus ATCC 11778, Bacillus subtilis ATCC 6633, Staphylococcus aureus ATCC 25923, and Methicillin resistant Staphylococcus aureus (MRSA) were employed as the test organisms. Minimum inhibitory concentration (MIC) values were determined using the dilution method, as described in the M07-A9,[45] as described in our previous paper.[4,46]

[11] = system: A549 (human lung carcinoma) cells; experiment: In vitro cytotoxicity, A549; type: cell-based
Procedure: as §1

[12] = system: HelaS3, A549, and HepG2 cancer cell lines; experiment: Cytotoxicity stated over the three cancer cell lines; type: cell-based, human; settings: HelaS3, A549, HepG2 taken together; for IC50: Homo sapiens, read-out: Cytotoxicity against three cancer cell lines (IC50 values, range over lines)
Procedure: as §1

[13] = system: MRSA, S. aureus, B. subtilis, and B. cereus; experiment: Antibacterial activity stated over all four Gram-positive strains; type: cell-based; settings: for MIC / MIC against all bacterial strains tested: MRSA, S. aureus, B. subtilis, B. cereus taken together; for MIC: read-out: MIC against all bacterial strains tested; for fold improvement in antibacterial potency (MIC) compared to parent 1: all bacterial strains
Procedure: as §2

[14] = system: S. aureus ATCC 25923; experiment: Antibacterial microdilution MIC, S. aureus; type: cell-based; settings: Staphylococcus aureus
Procedure: as §2

[15] = system: Vero (African green monkey kidney) cells; experiment: In vitro cytotoxicity, Vero normal cells; type: cell-based
Procedure: as §1

[16] = In vitro cytotoxicity, Vero normal cells; type: cell-based, African green monkey; settings: African green monkey, Vero cells (kidney, non-tumorigenic)
Procedure: as §1

[17] = system: Methicillin resistant Staphylococcus aureus (MRSA); experiment: Antibacterial microdilution MIC, MRSA; type: cell-based; settings: read-out: MIC MRSA
Procedure: as §2

[18] = system: HelaS3 (human cervical carcinoma) cells; experiment: In vitro cytotoxicity, HelaS3; type: cell-based; settings: HeLa S3
Procedure: as §1

[19] = system: Bacillus subtilis ATCC 6633; experiment: Antibacterial microdilution MIC, B. subtilis; type: cell-based
Procedure: as §2

[20] = ATCC11778, microdilution method, ATCC 11778, read-out: MIC B. cereus
[21] = ATCC25923, microdilution method, ATCC 25923, read-out: MIC S. aureus
[22] = ATCC6633, microdilution method, ATCC 6633, read-out: MIC B. subtilis

SMILES | IC50 [9] [µM] | MIC [10, 20] [µg/mL] | IC50 [11] [µM] | MIC [14, 21] [µg/mL] | IC50 [16] [µM] | MIC ([17]; microdilution method) [µg/mL] | IC50 [18] [µM] | MIC [19, 22] [µg/mL] | further results
CC1Oc2cc3oc4c(O)c(O)ccc4c(=O)c3c(O)c2C1(C)C (centres unmarked) [Compound 1, Toxyloxanthone C] | – | – | – | – | – | – | – | – | IC50 [1]: 8.52 ± 0.64 µM; MIC B. subtilis [2]: 128 µg/mL (≈ 390 µM); IC50 [3]: 21.8 ± 4.89 µM; MIC B. cereus [4]: 128 µg/mL (≈ 390 µM); IC50 [5]: 20.8 ± 2.57 µM; MIC S. aureus [6]: 128 µg/mL (≈ 390 µM); IC50 [7]: 13.6 ± 1.11 µM; MIC MRSA [8]: 128 µg/mL (≈ 390 µM)
CC(=O)Oc1ccc2c(=O)c3c(O)c4c(cc3oc2c1OC(C)=O)OC(C)C4(C)C (centres unmarked) [Compound 1a, 5,6-Diacetoxytoxyloxanthone C] | 21.1 ± 1.18 | 4 (≈ 9.7 µM) | 12.2 ± 1.08 | 4 (≈ 9.7 µM) | > 100 | 4 (≈ 9.7 µM) | 22.6 ± 2.02 | 4 (≈ 9.7 µM) | IC50 [12]: 12.2 to 22.6 µM; MIC [13]: 4 µg/mL (≈ 9.7 µM); fold improvement in antibacterial potency (MIC) compared to parent 1 [13]: 32 fold; Cytotoxicity (IC50, μM) Vero [15]: without showing cytotoxicity
CCCCC(=O)Oc1ccc2c(=O)c3c(OC(=O)CCCC)c4c(cc3oc2c1OC(=O)CCCC)OC(C)C4(C)C (centres unmarked) [Compound 1b, 1,5,6-Tripentanoyloxytoxyloxanthone C] | 17.2 ± 4.5 | 16 (≈ 27.6 µM) | 5.77 ± 2.14 | 8 (≈ 13.8 µM) | 5.59 ± 0.36 | 8 (≈ 13.8 µM) | 20.5 ± 4.92 | 8 (≈ 13.8 µM) | MIC [13]: 8 to 16 µg/mL (≈ 13.8 to 27.6 µM); Cytotoxicity (IC50, μM) Vero [15]: strong cytotoxicity
CC1Oc2cc3oc4c(OS(C)(=O)=O)c(OS(C)(=O)=O)ccc4c(=O)c3c(O)c2C1(C)C (centres unmarked) [Compound 1c, 5,6-Dimesyloxytoxyloxanthone C] | > 100 | > 128 | > 100 | > 128 | > 100 | > 128 | 65.3 ± 3.92 | > 128 | MIC against all bacterial strains tested [13]: no antibacterial activity
COc1ccc2c(=O)c3c(O)c4c(cc3oc2c1OC)OC(C)C4(C)C (centres unmarked) [Compound 1d, 5,6-Dimethoxytoxyloxanthone C] | > 100 | > 128 | > 100 | > 128 | > 100 | > 128 | > 100 | > 128 | Cytotoxicity against three cancer cell lines (IC50 values, range over lines) [12]: no cytotoxicity; MIC against all bacterial strains tested [13]: no antibacterial activity
CCOc1ccc2c(=O)c3c(O)c4c(cc3oc2c1OCC)OC(C)C4(C)C (centres unmarked) [Compound 1e, 5,6-Diethoxytoxyloxanthone C] | > 100 | > 128 | > 100 | > 128 | > 100 | > 128 | 50.4 ± 8.45 | > 128 | MIC against all bacterial strains tested [13]: no antibacterial activity
CC1Oc2c(c(O)c3c(=O)c4ccc(O)c(O)c4oc3c2Br)C1(C)C (centres unmarked) [Compound 1f, 4-Bromotoxyloxanthone C] | 19.4 ± 1.52 | 4 (≈ 9.82 µM) | 7.52 ± 0.36 | 4 (≈ 9.82 µM) | 9.52 ± 1.02 | 4 (≈ 9.82 µM) | 17.4 ± 1.75 | 4 (≈ 9.82 µM) | MIC [13]: 4 µg/mL (≈ 9.82 µM); fold improvement in antibacterial potency (MIC) compared to parent 1 [13]: 32 fold; Cytotoxicity (IC50, μM) Vero [15]: cytotoxic toward normal cells
C=CC(C)(C)c1c2c(c(O)c3c(=O)c4ccc(O)c(O)c4oc13)C=CC(C)(C)O2 [Compound 2, Macluraxanthone] | – | – | – | – | – | – | – | – | IC50 [1]: 4.29 ± 0.6 µM; MIC B. subtilis [2]: 64 µg/mL (≈ 162 µM); IC50 [3]: 6.46 ± 0.98 µM; MIC B. cereus [4]: 64 µg/mL (≈ 162 µM); IC50 [5]: 5.26 ± 0.41 µM; MIC S. aureus [6]: >128 µg/mL; IC50 [7]: 1.59 ± 0.12 µM; MIC MRSA [8]: 16 µg/mL (≈ 40.6 µM)
C=CC(C)(C)c1c2c(c(O)c3c(=O)c4ccc(OC(C)=O)c(OC(C)=O)c4oc13)C=CC(C)(C)O2 [Compound 2a, 5,6-Diacetoxymacluraxanthone] | 24.5 ± 2.98 | 16 (≈ 33.4 µM) | 15.7 ± 1.17 | 16 (≈ 33.4 µM) | 10.1 ± 1.67 | 8 (≈ 16.7 µM) | 25.6 ± 4.77 | 32 (≈ 66.9 µM) | IC50 [12]: 15.7 to 25.6 µM; MIC [13]: 8 to 32 µg/mL (≈ 16.7 to 66.9 µM)
C=CC(C)(C)c1c2c(c(OC(=O)CCCC)c3c(=O)c4ccc(OC(=O)CCCC)c(OC(=O)CCCC)c4oc13)C=CC(C)(C)O2 [Compound 2b, 1,5,6-Tripentanoyloxymacluraxanthone] | > 100 | > 128 | 41.8 ± 1.91 | > 128 | 36 ± 2.32 | > 128 | 55.3 ± 2.18 | > 128 | –
C=CC(C)(C)c1c2c(c(O)c3c(=O)c4ccc(OS(C)(=O)=O)c(OS(C)(=O)=O)c4oc13)C=CC(C)(C)O2 [Compound 2c, 5,6-Dimesyloxymacluraxanthone] | > 100 | > 128 | 48.8 ± 4.73 | > 128 | > 100 | > 128 | 84.3 ± 7.86 | > 128 | –
C=CC(C)(C)c1c2c(c(O)c3c(=O)c4ccc(OC)c(OC)c4oc13)C=CC(C)(C)O2 [Compound 2d, 5,6-Dimethoxymacluraxanthone] | > 100 | > 128 | > 100 | > 128 | > 100 | > 128 | > 100 | > 128 | Cytotoxicity against three cancer cell lines (IC50 values, range over lines) [12]: no cytotoxicity
C=CC(C)(C)c1c2c(c(O)c3c(=O)c4ccc(O)c(OC)c4oc13)C=CC(C)(C)O2 [Compound 2e, 5-Methoxymacluraxanthone] | > 100 | > 128 | 90.5 ± 6.23 | > 128 | > 100 | > 128 | > 100 | > 128 | –
C=CC(C)(C)c1c2c(c(O)c3c(=O)c4ccc(OCC)c(OCC)c4oc13)C=CC(C)(C)O2 [Compound 2f, 5,6-Diethoxymacluraxanthone] | > 100 | > 128 | > 100 | > 128 | > 100 | > 128 | > 100 | > 128 | Cytotoxicity against three cancer cell lines (IC50 values, range over lines) [12]: no cytotoxicity
C=CC(C)(C)c1c2c(c(O)c3c(=O)c4ccc(O)c(OCC)c4oc13)C=CC(C)(C)O2 [Compound 2g, 5-Ethoxymacluraxanthone] | > 100 | > 128 | > 100 | > 128 | > 100 | > 128 | > 100 | > 128 | Cytotoxicity against three cancer cell lines (IC50 values, range over lines) [12]: no cytotoxicity
COc1cccc2c1C(=O)c1c(O)c3c(c(O)c1C2=O)C[C@@](O)(C(=O)CO)C[C@@H]3O[C@H]1C[C@H](N)[C@H](O)[C@H](C)O1 [Doxorubicin, reference compound] | 0.37 ± 0.02 | – | 0.48 ± 0.036 | – | 1.95 ± 0.13 | – | 0.29 ± 0.02 | – | –
CN[C@H](CC(C)C)C(=O)N[C@H]1C(=O)N[C@@H](CC(N)=O)C(=O)N[C@H]2C(=O)N[C@H]3C(=O)N[C@H](C(=O)N[C@H](C(=O)O)c4cc(O)cc(O)c4-c4cc3ccc4O)[C@H](O)c3ccc(c(Cl)c3)Oc3cc2cc(c3O[C@@H]2O[C@H](CO)[C@@H](O)[C@H](O)[C@H]2O[C@H]2C[C@](C)(N)[C@H](O)[C@H](C)O2)Oc2ccc(cc2Cl)[C@H]1O [Vancomycin, reference compound] | – | – | – | – | – | – | – | – | MIC ([10]; ATCC11778, read-out: MIC B. cereus): 1 µg/mL (≈ 0.69 µM); MIC ([14]; ATCC25923, read-out: MIC S. aureus): 2 µg/mL (≈ 1.38 µM); MIC [17]: 2 µg/mL (≈ 1.38 µM); MIC ([19]; ATCC6633, read-out: MIC B. subtilis): 2 µg/mL (≈ 1.38 µM)
